The subject of assay [1] is Escherichia coli. Briefly: microbe, parasite or virus in culture.
The test system of assay [2] is Escherichia coli. Briefly: microbe, parasite or virus in culture. This is another data set of the same source.
Assay [3] in a line: HPDE-C7 pancreatic duct cell viability loss – fluorescence, HTS (AID 430). The class given is functional, cell-based. The conditions noted are these: Homo sapiens.
Assay [4] in a line: viability loss of HPDE-C7K cells – cell-based, fluorescence, HTS, primary screen (AID 431). The class given is functional. The note with it: Homo sapiens.
The test system of assay [5] is HEK293. Briefly: NOD2 signaling inhibitors in MDP-stimulated cells, cell-based, uHTS, luminescence (AID 2001). The note with it: Homo sapiens. The class given is functional.
Assay [6] deals with T1, Nucleotide-binding oligomerization domain-containing protein 1 (Homo sapiens, UniProt Q9Y239).
T1 sequence (Q9Y239 whole entry): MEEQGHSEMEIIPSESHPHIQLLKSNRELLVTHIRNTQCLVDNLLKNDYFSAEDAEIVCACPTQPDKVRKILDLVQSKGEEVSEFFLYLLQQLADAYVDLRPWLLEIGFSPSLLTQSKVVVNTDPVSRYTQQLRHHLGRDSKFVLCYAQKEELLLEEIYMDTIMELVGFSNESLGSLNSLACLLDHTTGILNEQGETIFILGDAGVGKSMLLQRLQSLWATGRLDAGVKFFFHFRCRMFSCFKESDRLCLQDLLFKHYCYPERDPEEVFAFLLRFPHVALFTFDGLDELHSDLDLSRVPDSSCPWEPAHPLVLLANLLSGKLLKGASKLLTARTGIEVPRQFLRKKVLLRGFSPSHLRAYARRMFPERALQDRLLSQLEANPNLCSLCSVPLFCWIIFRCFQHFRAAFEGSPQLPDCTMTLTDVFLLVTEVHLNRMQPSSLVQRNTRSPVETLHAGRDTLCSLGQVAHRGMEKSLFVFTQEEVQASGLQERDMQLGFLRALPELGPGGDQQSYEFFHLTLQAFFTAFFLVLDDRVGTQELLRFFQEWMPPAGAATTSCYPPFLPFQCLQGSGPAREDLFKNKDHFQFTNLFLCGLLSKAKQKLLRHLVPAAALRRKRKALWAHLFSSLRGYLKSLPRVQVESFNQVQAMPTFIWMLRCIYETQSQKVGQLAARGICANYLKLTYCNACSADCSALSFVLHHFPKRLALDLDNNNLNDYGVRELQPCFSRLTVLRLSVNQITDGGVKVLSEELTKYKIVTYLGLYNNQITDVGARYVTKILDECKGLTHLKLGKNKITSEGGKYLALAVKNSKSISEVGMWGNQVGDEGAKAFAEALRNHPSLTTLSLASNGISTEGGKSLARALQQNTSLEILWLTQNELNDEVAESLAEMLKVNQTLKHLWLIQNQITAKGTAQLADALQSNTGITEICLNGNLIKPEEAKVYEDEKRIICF
Briefly: blockers of NOD1 pathway activity – revised, SAR follow-up (AID 2333). In kind it is functional.

Assay [7] deals with T2, COUP transcription factor 2 (Homo sapiens, UniProt P24468).
T2 sequence (P24468 whole entry): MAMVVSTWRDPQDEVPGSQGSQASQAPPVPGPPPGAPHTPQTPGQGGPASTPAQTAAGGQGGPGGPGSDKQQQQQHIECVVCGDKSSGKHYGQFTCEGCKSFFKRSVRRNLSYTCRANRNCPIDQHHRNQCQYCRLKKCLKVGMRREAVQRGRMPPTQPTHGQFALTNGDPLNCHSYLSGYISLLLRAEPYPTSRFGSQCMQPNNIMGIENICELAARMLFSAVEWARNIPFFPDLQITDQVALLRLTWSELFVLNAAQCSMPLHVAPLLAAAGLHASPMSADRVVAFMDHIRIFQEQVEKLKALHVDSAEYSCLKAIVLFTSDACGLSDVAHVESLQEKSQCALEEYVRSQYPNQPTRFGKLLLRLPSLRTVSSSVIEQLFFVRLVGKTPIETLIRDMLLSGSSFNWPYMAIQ
Briefly: Luminescence-based cell-based high throughput dose response assay to identify inhibitors of COUP-TFII (NR2F2). In kind it is functional.

A short description of assay [8]: non-specific 3'UTR reporter inhibition in Clone20-Shn3RL – cell-based, Renilla luciferase, cherry-picked, counter-screen for Shn3 inhibitor project, dose response (AID 624133). The class given is functional. For orientation: Counterscreens check selectivity or assay interference.
For assay [9], the system named is HEK293. Briefly: cells. The class given is functional, cell-based. The conditions noted are these: Homo sapiens.
The next assay has as its target Tumor necrosis factor (Homo sapiens, UniProt P01375). Briefly: analog potency on TNFa NF-kB signaling – cell-based, revised, SAR follow-up (AID 2337). In kind it is functional.
Assay [10] in a line: reduction of Shn3 3'UTR-driven luciferase in osteoblasts – cell-based, Clone20 osteoblasts, firefly luciferase, cherry-picked, dose response (AID 624132).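 Also: firefly luciferase luminescence from reporter carrying the Shn3 3'UTR in osteoblasts.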 The class given is functional.
Assay [11] concerns HEK293. Briefly: cells. In kind it is functional, cell-based. The note with it: Homo sapiens. The source holds these as a separate data set.
The next assay deals with INS1. Briefly: INS-1E survival protection against cytokine death – cell-based, luminescence, retest, dose response (AID 449756).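 Also: cell death triggered by IL-1 beta plus TNF-alpha plus IFN-gamma mixture; protective hits raise ATP signal compared with cytokine alone wells.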 In kind it is functional. The note with it: Rattus norvegicus.
In the next assay the test system is Jurkat. Briefly: blockers of NF-kB activation in T cells – Jurkat, luciferase reporter, luminescence, B- and T-cell, dose response (AID 489004).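 Also: NF-kB luciferase reporter Jurkat cells stimulated with PMA plus ionomycin.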 In kind it is functional, cell-based. The note with it: Homo sapiens. (In general: A reporter such as luciferase makes a cellular process visible.)
In assay [12] the target is Nucleotide-binding oligomerization domain-containing protein 2 (Homo sapiens, UniProt Q9HC29). Briefly: inhibition of NOD2-driven NF-kB reporter – cell-based, luminescence, uHTS, HEK293 (AID 1566). In kind it is functional.
Assay [13] has as its system HEK293. Briefly: cells. The note with it: Homo sapiens. In kind it is functional, cell-based. The source holds these as a separate data set.
The nature of assay [14]: loss of viability in HepG2 cells – cell-based, CellTiter-Glo, cherry-picked, cytotoxicity control for Shn3 inhibitor project, dose response (AID 624134). In kind it is functional. (In ATP-based viability assays light output follows the ATP content of the culture.)
Assay [15] relates to HEK293. Briefly: inhibition of NOD1-driven NF-kB reporter – cell-based, luminescence, uHTS, primary screen (AID 1578). The class given is functional. The conditions noted are these: Homo sapiens.
Assay [16] deals with HEK293. Briefly: cells. The conditions noted are these: Homo sapiens.
Assay [17] can be described thus: HEK-293T viability loss, compound-treated – cell-based, uHTS hits, cytotoxicity control for B/T-cell NF-kB inhibitor project, dose response (AID 489019).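 Also: IC50 reflects cytotoxicity as loss of cell viability.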 The class given is functional.

Where “and” joins values, the source holds several entries; their conditions need not be identical. Equal entries are not always repeated. Calls of active or inactive are those of the source.

Chain of Tumor necrosis factor (P01375 whole entry): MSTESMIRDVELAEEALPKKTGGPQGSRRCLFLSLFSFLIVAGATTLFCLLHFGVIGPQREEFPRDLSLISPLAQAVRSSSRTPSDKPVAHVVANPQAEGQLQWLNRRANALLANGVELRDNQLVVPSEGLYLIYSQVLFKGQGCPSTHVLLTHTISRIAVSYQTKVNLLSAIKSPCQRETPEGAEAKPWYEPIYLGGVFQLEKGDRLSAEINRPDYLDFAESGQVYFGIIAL
Chain of Nucleotide-binding oligomerization domain-containing protein 2 (Q9HC29 whole entry, the tested form may be a part): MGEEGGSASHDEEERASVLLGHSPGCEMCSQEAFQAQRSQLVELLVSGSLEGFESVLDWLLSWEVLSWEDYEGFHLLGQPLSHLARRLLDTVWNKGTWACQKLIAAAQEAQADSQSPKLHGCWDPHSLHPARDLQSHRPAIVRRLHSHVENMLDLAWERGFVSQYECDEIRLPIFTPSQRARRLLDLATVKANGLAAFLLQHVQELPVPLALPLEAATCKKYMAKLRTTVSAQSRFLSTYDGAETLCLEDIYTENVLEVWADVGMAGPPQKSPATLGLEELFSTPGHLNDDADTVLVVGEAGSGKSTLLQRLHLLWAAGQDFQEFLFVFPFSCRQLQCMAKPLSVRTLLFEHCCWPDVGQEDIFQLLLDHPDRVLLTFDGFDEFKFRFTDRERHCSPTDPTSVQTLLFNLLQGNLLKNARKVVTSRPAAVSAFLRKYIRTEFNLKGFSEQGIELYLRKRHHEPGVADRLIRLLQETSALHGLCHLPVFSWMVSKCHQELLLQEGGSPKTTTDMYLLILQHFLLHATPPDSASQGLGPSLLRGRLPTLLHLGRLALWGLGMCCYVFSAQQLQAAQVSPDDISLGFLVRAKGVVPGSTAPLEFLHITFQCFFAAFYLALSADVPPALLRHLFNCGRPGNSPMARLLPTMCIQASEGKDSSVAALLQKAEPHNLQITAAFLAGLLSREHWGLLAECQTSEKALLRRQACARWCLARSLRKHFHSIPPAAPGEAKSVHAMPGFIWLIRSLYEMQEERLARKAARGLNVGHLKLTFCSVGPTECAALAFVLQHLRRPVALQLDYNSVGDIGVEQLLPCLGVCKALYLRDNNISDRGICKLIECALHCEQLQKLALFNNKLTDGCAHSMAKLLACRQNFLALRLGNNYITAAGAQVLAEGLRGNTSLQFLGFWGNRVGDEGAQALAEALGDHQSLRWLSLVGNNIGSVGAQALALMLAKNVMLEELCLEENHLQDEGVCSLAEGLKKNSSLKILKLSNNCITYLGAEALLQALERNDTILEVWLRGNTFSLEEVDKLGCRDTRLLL

Turning to `COC(=O)c1c(NC(=O)C(=O)NCCCN2CCOCC2)sc2c1CCCC2`, the AC50 in the assay with Escherichia coli [1] is 19.8 µM (active).

For `CC(C)CCNC(=O)c1c(N)n(CC2CCCO2)c2nc3ccccc3nc12` (configuration not stated), the AC50 in the assay on Escherichia coli [2] was 16.3 µM (active). Moreover, the EC50 was 13.2 µM (active) in assay [3] and 13.6 µM (active) in assay [4].

As for `CCOC(=O)CC(=O)Nc1ccccc1C(=O)O`, the AC50 in the assay on Escherichia coli [1] was 27 µM (active).

`CC(C)Cc1ccc(CN2CCCC(NC(=O)Cn3cnnn3)C2)cc1` (configuration not stated): the AC50 with Escherichia coli [2] was 103 µM (active).

For `Cn1nccc1C(=O)NC1CCCc2c1cnn2-c1ccccc1F` (configuration not stated), the IC50 in the assay on HEK293 [5] was 2.71 µM (active); in [6] it was 968 nM (active) and 825 nM (active); in assay [7], 1.51 µM (active); with HEK293 [9] it was 13.8 µM (active); on Tumor necrosis factor it was 4.28 µM (active) and 14.6 µM (active); with HEK293 [11], > 20 µM (inactive). The IC50 in the assay on Jurkat was > 80 µM (inactive); in the assay on HEK293 [13], 2.36 µM (active); with HEK293 [16], > 20 µM (inactive); in [17], > 80 µM (inactive). Further, the AC50 is 3.96 µM (active) in assay [8], 0.37 µM (active) in [10], 2.26 µM (active) in the assay with INS1 and 0.472 µM (active) in assay [14]. Moreover, the EC50 in [12] is 0.61 µM (active); in the assay with HEK293 [15] it was 0.62 µM (active).

The term AC50 denotes the concentration giving half of the maximal activity seen. One may read the EC50 as the concentration that produces a half-maximal response. For orientation: IC50 means the concentration needed to halve the response being measured.
